Laboratory results published in patent US20230173042A1, “METHODS OF TREATMENT WITH ASPARAGINASE” (JAZZ PHARMACEUTICALS IRELAND LTD., priority 2017, published 2023).

Columns and labels:
Format in all cases: cell-based
DLBCL = test: SynergyScreen of Pegcrisantaspase or Oncaspar with standard of care agents; conditions: agent combined with Pegcrisantaspase (FIG. 13A) or Oncaspar (FIG. 13B)
Text: (§1) The special volcano plot of FIG. 9 relates compound sensitivity (as measured by ^10logIC50) to the presence of cancer hotspot mutations. […] The hotspot mutations were derived from statistical analyses of the recurrence patterns of mutations and copy number alterations in patients through separate studies. Axes and statistical analyses are identical to the volcano plot of FIG. 8. The cutoff p-level for significance is 0.32. […] Effect20 For determination of the effect of the compound on the activity of other anti-cancer agents in SynergyScreen™ experiments, a low, fixed concentration is used, corresponding to the concentration at which cell growth is inhibited by 20%. This concentration is determined using the dose-response curves of the single compounds. The concentration is the value on the x-as, corresponding to 80% viability of untreated at the y-axis.
(§2) See the tables depicted in FIG. 13A-FIG. 13B. Grey shading indicates synergistic activity. Light grey shading indicates one experiment and dark grey indicates two experiments. […] Example 5: mPEG-r-crisantaspase conjugates (Pegcrisantaspases) was tested in combination with ABT-737 against HL-60 cell line.

AML = test: as above; conditions: agent combined with Pegcrisantaspase (FIG. 13A) or Oncaspar (FIG. 13B)
Text: as §1, §2

KG-1 = test: Combination (synergy) cell proliferation assay with pegcrisantaspase; conditions: anti-cancer agent in combination with pegcrisantaspase; KG-1 (AML)
Protocol: (§3) Plate preparation. The stocks of the mixtures and single agents were diluted in DMSO or 0.9% sodium chloride to generate a 7-points dose-response series. After further 31.6 times dilution in 20 mM sterile Hepes buffer pH 7.4 (reference compounds) or medium (pegcrisantaspase), 5 μl of pegcrisantaspase solution, and 5 μl of reference compound was added to 40 μl pre-plated cells in duplicate in a 384-well assay plate. The final DMSO concentration during incubation was 0.4% in all wells.
(§4) Cell proliferation assay. A cell assay stock was thawed and diluted in appropriate medium and dispensed in a 384-well plate, depending on the cell line used, at a concentration of 800-3200 cells per well in […]: i.e., DB: 800 cells per well; RL: 1000 cells per well; MV-4-11: 1600 cells per well; KG-1, HL-60 and HT 3200 cells per well. For each used cell line the cell density was optimized previously. The margins of the plate were filled with phosphate-buffered saline. Plated cells were incubated in a humidified atmosphere of 5% CO2 at 37° C. After 24 hours, 5 μl of pegcrisantaspase solution, and 5 μl of reference compound was added, and plates were further incubated for another 72 hours. After 72 hours, plates were cooled in 30 minutes to room temperature and 25 μl of ATPlite 1Step™ (PerkinElmer) solution was added to each well, and subsequently shaken for 2 minutes. After 5 minutes of incubation in the dark at room temperature, the luminescence was recorded on an Envision multimode reader (PerkinElmer).
(§5) Controls: t=0 signal. On a parallel plate, 40 μl cells were dispensed in quadruplicate and incubated in a humidified atmosphere of 5% CO2 at 37° C. After 24 hours, plates were cooled to room temperature in 30 minutes. 5 μl DMSO-containing Hepes buffer, 5 μl 0.9% sodium chloride-containing medium and 25 μl ATPlite 1Step™ solution were added and subsequently mixed for 2 minutes. Luminescence was measured after 10 minute incubation (=luminescencet=0) in the dark.
(§6) Cell growth control. The cellular doubling times of all cell lines are calculated from the t=0 hours and t=end growth signals of the untreated cells. If the doubling time is out of specification (0.5-2.0 times deviating from historic average) the assay is invalidated.
(§7) Maximum signals. On each 384-well plate, the maximum luminescence was recorded after incubation for 72 hours without compound in the presence of 0.4% DMSO. All equivalent wells (usually 14) were averaged. This average is defined as: luminescenceuntreated,t=72h. Dose response curves. Accurate single agent IC50s are needed for combination analysis. For each single agent its dose-response signal was fitted by a 4-parameter logistics curve using XL-fit 5 (IDBS software):
(§8) luminescence=bottom+(top-bottom)/(1+10^(logIC50−log[cpd])−hill))
(§9) [cpd] is the compound concentration tested. hill is the Hill-coefficient. Bottom and top are the asymptotic minimum and maximum of the curve. Combination Index (CI) determination. The CI is one of the most widely used quantitative indications of synergy. The CI evaluates the concentrations needed to achieve a fixed-effect. A CI of below 1 indicates synergy.
(§10) CI is defined for a certain percentage cell viability (V), which is the signal related to a non-exposed control: V=100%×luminescencetreated,t=72h/luminescenceuntreated,t=72h. The concentrations of the two compounds cpd1 and cpd2 needed to reach a certain percentage cell viability V in combination are then compared to the concentrations needed as single agents:
(§11) IC50,cpd1 would signify the IC50 of cpd1 alone. The CI is labelled by %-effect, to follow conventions, so CI75 signifies the CI at 25% viability Curve shift analysis. This analysis provides a visual confirmation of synergy^1. The concentrations of the mixtures of compounds 1 and 2 (cpd1 and cpd2), and the single agents, were expressed in terms of IC50 equivalents (in ‘units’ of IC50):
(§12) The dose-response signal was fitted by a 4-parameter logistics curve using XL-fit 5 (IDBS software)

HL-60 cell line = test: as above; conditions: for conclusion (synergy): anti-cancer agent in combination with pegcrisantaspase, HL-60 (AML)
Protocol: as §3, §4, §5, §6, §7, §8, §9, §10, §11, §12

RL = test: as above; conditions: anti-cancer agent in combination with pegcrisantaspase; RL (DLBCL)
Protocol: as §3, §4, §5, §6, §7, §8, §9, §10, §11, §12

HT = test: as above; conditions: anti-cancer agent in combination with pegcrisantaspase; HT (DLBCL)
Protocol: as §3, §4, §5, §6, §7, §8, §9, §10, §11, §12

DB = test: as above; conditions: anti-cancer agent in combination with pegcrisantaspase; DB (DLBCL)
Protocol: as §3, §4, §5, §6, §7, §8, §9, §10, §11, §12

various cell lines = test: Pegcrisantaspase in combination with other compounds (Example 4, FIG. 2); conditions: compound in combination with Pegcrisantaspase

Compound	effect in DLBCL when used with Pegcrisantaspase or Oncaspar (DLBCL)	effect in AML when used with Pegcrisantaspase or Oncaspar (AML)	conclusion (synergy) (KG-1)	conclusion (synergy) (HL-60 cell line)	conclusion (synergy) (RL)	conclusion (synergy) (DB)	also measured
Cn1c(=O)n(-c2ccc(C(C)(C)C#N)cc2)c2c3cc(-c4cnc5ccccc5c4)ccc3ncc21 [dactolisib]	increased effect	increased effect	strong synergy (CI < 0.3: strong synergy)	synergy (CI < 1.0: synergy)	–	–	–
COc1cccc2c1C(=O)c1c(O)c3c(c(O)c1C2=O)C[C@@](O)(C(C)=O)C[C@@H]3O[C@H]1C[C@H](N)[C@H](O)[C@H](C)O1 [daunorubicin]	–	increased effect	–	–	–	–	–
CC1(C)CCC(CN2CCN(c3ccc(C(=O)NS(=O)(=O)c4ccc(NCC5CCOCC5)c([N+](=O)[O-])c4)c(Oc4cnc5[nH]ccc5c4)c3)CC2)=C(c2ccc(Cl)cc2)C1 [venetoclax]	–	–	strong synergy (CI < 0.3: strong synergy)	strong synergy (CI < 0.3: strong synergy)	synergy (CI < 1.0: synergy)	synergy (CI < 1.0: synergy)	conclusion (synergy) (HT): no synergy (CI = 1.0: no synergy)
CC[C@]1(O)C[C@H]2CN(CCc3c([nH]c4ccccc34)[C@@](C(=O)OC)(c3cc4c(cc3OC)N(C=O)[C@H]3[C@@](O)(C(=O)OC)[C@H](OC(C)=O)[C@]5(CC)C=CCN6CC[C@]43[C@@H]65)C2)C1 [vincristine]	increased effect	–	–	–	–	–	–
CC(C)C[C@H](NC(=O)[C@H](CCc1ccccc1)NC(=O)CN1CCOCC1)C(=O)N[C@@H](Cc1ccccc1)C(=O)N[C@@H](CC(C)C)C(=O)[C@@]1(C)CO1 [carfilzomib]	increased effect	increased effect	synergy (CI < 1.0: synergy)	antagonism	synergy (CI < 1.0: synergy)	synergy (CI < 1.0: synergy)	conclusion (synergy) (HT): no synergy/antagonism
C[C@]12C=CC(=O)C=C1CC[C@@H]1[C@@H]2[C@@H](O)C[C@@]2(C)[C@H]1CC[C@]2(O)C(=O)CO [prednisolone]	increased effect	–	–	–	synergy (CI < 1.0: synergy)	no synergy (CI = 1.0: no synergy)	–
CO[C@H]1C[C@@H]2CC[C@@H](C)[C@@](O)(O2)C(=O)C(=O)N2CCCC[C@H]2C(=O)O[C@H]([C@H](C)C[C@@H]2CC[C@@H](OCCO)[C@H](OC)C2)CC(=O)[C@H](C)/C=C(\C)[C@@H](O)[C@@H](OC)C(=O)[C@H](C)C[C@H](C)/C=C/C=C/C=C/1C [everolimus]	increased effect	–	–	–	–	–	–
CC(C)C[C@H](NC(=O)[C@H](Cc1ccccc1)NC(=O)c1cnccn1)B(O)O [bortezomib]	increased effect	increased effect	–	–	–	–	–
CN(C)CC[C@H](CSc1ccccc1)Nc1ccc(S(=O)(=O)NC(=O)c2ccc(N3CCN(Cc4ccccc4-c4ccc(Cl)cc4)CC3)cc2)cc1[N+](=O)[O-] [ABT-737]	increased effect	increased effect	strong synergy (CI < 0.3: strong synergy)	strong synergy (CI < 0.3: strong synergy)	synergy (CI < 1.0: synergy)	synergy (CI < 1.0: synergy)	potentiation of the effect by Pegcrisantaspase (various cell lines): synergy; IC50 (HL-60 cell line; Homo sapiens, single agents, dose-response curves of FIG. 3, HL-60): 835 nM; Emax (HL-60 cell line; Homo sapiens, single agents, dose-response curves of FIG. 3, HL-60, read-out: maximal effect): 67%; IC50 (HL-60 cell line; Homo sapiens, therapeutic as single agent, HL-60, 72 hours): 1210 nM; conclusion (synergy) (HT): synergy (CI < 1.0: synergy)
O=C(Cc1cccc(OC(F)(F)F)c1)Nc1ccc(CCCCc2nnc(NC(=O)Cc3ccccn3)s2)nn1 [CB-839]	increased effect	–	–	–	–	–	–
Nc1ccn([C@@H]2O[C@H](CO)[C@@H](O)[C@@H]2O)c(=O)n1 [cytarabine]	–	increased effect	–	–	–	–	potentiation of the effect by Pegcrisantaspase (various cell lines): synergy
